Source: patent US20260102383A1, “LPAR1 Inhibitors” (AbbVie Inc., priority 2024, published 2026)

Target: T1, human LPAR1 (Homo sapiens, UniProt Q92633)
T1 construct: host or cells: TangoEDG2-bla U2OS cells
Experiment: Arrestin assay (Arrestin Reporter EDG2-bla U2OS), inhibition of LPA-stimulated signal
Assay type: cell-based
Conditions: TangoEDG2-bla U2OS cells expressing human LPAR1; 0.25 μM LPA; read-out: Arrestin Reporter EDG2-bla U2OS Human Merged IC50
Outline: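 TangoEDG2-bla U2OS cells (1×10^4/well, plated 18-20 h) were preincubated 1 h at 37 °C with compound (12-point, 3-fold, 10 μM to 0.00006 μM), then stimulated 3 h with 0.25 μM LPA final. LiveBLAzer FRET B/G 460/530 nm emission ratio gave % inhibition; IC50 from 4-parameter variable-slope fit.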

T1 sequence (Q92633 whole entry): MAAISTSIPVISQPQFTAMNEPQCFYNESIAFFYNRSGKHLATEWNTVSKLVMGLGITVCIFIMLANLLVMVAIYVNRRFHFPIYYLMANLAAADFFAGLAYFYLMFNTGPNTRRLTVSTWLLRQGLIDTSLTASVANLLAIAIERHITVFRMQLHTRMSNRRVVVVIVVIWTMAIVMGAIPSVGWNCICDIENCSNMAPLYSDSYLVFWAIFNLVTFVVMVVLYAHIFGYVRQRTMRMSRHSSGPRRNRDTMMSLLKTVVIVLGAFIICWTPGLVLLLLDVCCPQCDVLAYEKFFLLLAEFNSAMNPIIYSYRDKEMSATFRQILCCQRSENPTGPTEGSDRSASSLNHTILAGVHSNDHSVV

IC50	SMILES
70.5 nM	CC(C)c1ccnn1C1(C(=O)Nc2ccc(Cl)cc2OC(F)F)CCN(CC(C)(C(=O)O)C2CCOCC2)CC1 (stereo not drawn) [Compound 52, 3-[4-[[4-chloro-2-(difluoromethoxy)phenyl]carbamoyl]-4-(5-isopropylpyrazol-1-yl)-1-piperidyl]-2-methyl-2-tetrahydropyran-4-yl-propanoic acid]
24.7 nM	CCOC(=O)N1CCC(CN2CCC(C(=O)Nc3ccc(Cl)cc3OC(F)F)(n3nccc3C(C)C)CC2)(C(=O)O)CC1 [Compound 6, 4-[[4-[[4-chloro-2-(difluoromethoxy)phenyl]carbamoyl]-4-(5-isopropylpyrazol-1-yl)-1-piperidyl]methyl]-1-ethoxycarbonyl-piperidine-4-carboxylic acid]
92.5 nM	CC(C)c1ccnn1C1(C(=O)Nc2ccc(Cl)cc2OC(F)F)CCN(CC2(C(=O)O)[C@@H]3COC[C@@H]32)CC1 (stereo partly drawn) [Compound 177, (1S,5R)-6-[[4-[[4-chloro-2-(difluoromethoxy)phenyl]carbamoyl]-4-(5-isopropylpyrazol-1-yl)-1-piperidyl]methyl]-3-oxabicyclo[3.1.0]hexane-6-carboxylic acid]
21.9 nM	CC(C)CC(=O)N1CCC(CN2CCC(C(=O)Nc3ccc(Cl)cc3OC(F)F)(n3nccc3C(C)C)CC2)(C(=O)O)CC1 [Compound 82, 4-[[4-[[4-chloro-2-(difluoromethoxy)phenyl]carbamoyl]-4-(5-isopropylpyrazol-1-yl)-1-piperidyl]methyl]-1-(3-methylbutanoyl)piperidine-4-carboxylic acid]
30.4 nM	CC(C)c1c(F)cnn1C1(C(=O)Nc2ccc(Cl)cc2OC(F)F)CCN(CC2(C(=O)O)CCC(=O)CC2)CC1 [Compound 153, 1-[[4-[[4-chloro-2-(difluoromethoxy)phenyl]carbamoyl]-4-(4-fluoro-5-isopropyl-pyrazol-1-yl)-1-piperidyl]methyl]-4-oxo-cyclohexanecarboxylic acid]
44.7 nM	CC1CCc2cnn(C3(C(=O)Nc4ccc(Cl)cc4OC(F)F)CCN([C@H]4C[C@@H](C(=O)O)C4)CC3)c21 (stereo partly drawn) [Compound 104, (1s,3s)-3-[4-[[4-chloro-2-(difluoromethoxy)phenyl]carbamoyl]-4-(6-methyl-5,6-dibydro-4H-cyclopenta[c]pyrazol-1-yl)-1-piperidyl] cyclobutanecarboxylic acid]
16.9 nM	COC[C@@H](CN1CCC(C(=O)Nc2ccc(Cl)cc2OC(F)F)(n2ncc(Cl)c2C(C)C)CC1)C(=O)O [Compound 206, (2R)-2-[[4-[[4-chloro-2-(difluoromethoxy)phenyl]carbamoyl]-4-(4-chloro-5-isopropyl-pyrazol-1-yl)-1-piperidyl]methyl]-3-methoxy-propanoic acid]
22.5 nM	CC(C)c1ccnn1C1(C(=O)Nc2ccc(Cl)cc2OC(F)F)CCN(CC2(C(=O)O)CC3(COC3)C2)CC1 [Compound 40, 6-[[4-[[4-chloro-2-(difluoromethoxy)phenyl]carbamoyl]-4-(5-isopropylpyrazol-1-yl)-1-piperidyl]methyl]-2-oxaspiro[3.3]heptane-6-carboxylic acid]
41.1 nM	CC(C)c1ccnn1C1(C(=O)Nc2ccc(Cl)cc2OC(F)F)CCN(C[C@H](C(=O)O)[C@@H]2CCOC2)CC1 (single isomer, unassigned) [Compound 152]
34.7 nM	CC(C)c1ccnn1C1(C(=O)Nc2ccc(Cl)cc2OC(F)F)CCN(CC(C(=O)O)C2COCCOC2)CC1 (stereo not drawn) [Compound 196, 3-[4-[[4-chloro-2-(difluoromethoxy)phenyl]carbamoyl]-4-(5-isopropylpyrazol-1-yl)-1-piperidyl]-2-(1,4-dioxepan-6-yl)propanoic acid]
48.1 nM	CC(C)c1ccnn1C1(C(=O)Nc2ccc(Cl)cc2OC(F)F)CCN([C@H]2C[C@@]3(C[C@H]3C(=O)O)C2)CC1 (relative stereo) [Compound 106, rel-(1R,3r,5S)-5-[4-1[4-chloro-2-(difluoromethoxy)phenyl]carbamoyl]-4-(5-isopropylpyrazol-1-yl)-1-piperidyl]spiro[2.3]hexane-2-carboxylic acid]
48.8 nM	CC(C)c1ccnn1C1(C(=O)Nc2ccc(Cl)cc2OC(F)F)CCN(C2CC(O)(C(=O)O)C2)CC1 (stereo not drawn) [Compound 121, 3-[4-[[4-chloro-2-(difluoromethoxy)phenyl]carbamoyl]-4-(5-isopropylpyrazol-1-yl)-1-piperidyl]-1-hydroxy-cyclobutanecarboxylic acid]
6.83 nM	CC(C)c1ccnn1C1(C(=O)Nc2ccc(Cl)cc2OC(F)F)CCN(CC2(C(=O)O)CCN(C(=O)C34CC(C(C)C)(C3)C4)CC2)CC1 [Compound 57, 4-[[4-[[4-chloro-2-(difluoromethoxy)phenyl]carbamoyl]-4-(5-isopropylpyrazol-1-yl)-1-piperidyl]methyl]-1-(3-isopropylbicyclo[1.1.1]pentane-1-carbonyl)piperidine-4-carboxylic acid]
26.4 nM	COCC1(C(=O)N2CCC(CN3CCC(C(=O)Nc4ccc(Cl)cc4OC(F)F)(n4nccc4C(C)C)CC3)(C(=O)O)CC2)CCC1 [Compound 59, 4-[[4-[[4-chloro-2-(difluoromethoxy)phenyl]carbamoyl]-4-(5-isopropylpyrazol-1-yl)-1-piperidyl]methyl]-1-[1-(methoxymethyl)cyclobutanecarbonyl] piperidine-4-carboxylic acid]
33.1 nM	COC[C@H](CN1CCC(C(=O)Nc2ccc(Cl)cc2OC(F)F)(n2ncc(F)c2C(C)C)CC1)C(=O)O (single isomer, unassigned) [Compound 170]
24.4 nM	CC(C)c1ccnn1C1(C(=O)Nc2ccc(Cl)cc2OC(F)F)CCN(CC(C)(C)C(=O)O)CC1 [Compound 83, 3-[4-[[4-chloro-2-(difluoromethoxy)phenyl]carbamoyl]-4-(5-isopropylpyrazol-1-yl)-1-piperidyl]-2,2-dimethyl-propanoic acid]
108 nM	CC(C)c1ccnn1C1(C(=O)Nc2ccc(Cl)cc2OC(F)F)CCN(C[C@@H](C(=O)O)N2C[C@H](C)O[C@@H](C)C2)CC1 [Compound 167, (2S)-3-[4-[[4-chloro-2-(difluoromethoxy)phenyl]carbamoyl]-4-(5-isopropylpyrazol-1-yl)-1-piperidyl]-2-[(2S,6S)-2,6-dimethylmorpholin-4-yl]propanoic acid]
71 nM	CC(C)c1ccnn1C1(C(=O)Nc2ccc(Cl)cc2OC(F)F)CCN(C[C@@]2(C(=O)O)CCOC(C)(C)C2)CC1 [Compound 172, (4R)-4-[[4-[[4-chloro-2-(difluoromethoxy)phenyl]carbamoyl]-4-(5-isopropylpyrazol-1-yl)-1-piperidyl]methyl]-2,2-dimethyl-tetrahydropyran-4-carboxylic acid]
13.3 nM	CC(C)OC(=O)N1CCC(CN2CCC(C(=O)Nc3ccc(Cl)cc3OC(F)F)(n3nccc3C(C)C)CC2)(C(=O)O)CC1 [Compound 88]
20.2 nM	CC(C)c1ccnn1C1(C(=O)Nc2ccc(Cl)cc2OC(F)F)CCN(C[C@@H](C)C(=O)O)CC1 [Compound 86, (2R)-3-[4-[[4-chloro-2-(difluoromethoxy)phenyl]carbamoyl]-4-(5-isopropylpyrazol-1-yl)-1-piperidyl]-2-methyl-propanoic acid]
87.7 nM	COC1(C(=O)O)CC(N2CCC(C(=O)Nc3ccc(Cl)cc3OC(F)F)(n3nccc3C(C)C)CC2)C1 (stereo not drawn) [Compound 181, 3-[4-[[4-chloro-2-(difluoromethoxy)phenyl]carbamoyl]-4-(5-isopropylpyrazol-1-yl)-1-piperidyl]-1-methoxy-cyclobutanecarboxylic acid]
